Patent US12611416B2, “Methods of treating ischemic stroke at risk for cerebral or cerebellar edema” (REMEDY PHARMACEUTICALS, INC., priority 2024, dated 2026)

Tested on: large hemispheric infarction (LHI) patients at high risk for cerebral edema
Experiment: CHARM trial: intravenous glibenclamide in large hemispheric infarction, 90-day mRS shift analysis
Type: in vivo, human
Details: for common odds ratio (cOR), 90-day mRS: versus placebo; for lesion volume at which cOR crosses the "no effect" point (cOR=1.0): 90-day mRS, mRS 5 and 6 combined
Text: The CHARM trial evaluated the safety and efficacy of intravenous glibenclamide as a treatment for large hemispheric infarction (LHI) patients at high risk for cerebral edema.
Patients meeting the following criteria were included: • A clinical diagnosis of acute ischemic stroke in the middle cerebral artery (MCA) territory. • A large hemispheric infarction defined as; lesion volume of 80 to 300 centimeters cubed (cm^3) on magnetic resonance imaging (MRI) diffusion-weighted imaging (DWI), or computed tomography perfusion (CTP), or an Alberta Stroke Program Early CT Score (ASPECTS) of 1 to 5 with involvement of at least 2 defined cortical regions. • Screening National Institutes of Health Stroke Scale (NIHSS) >=10. • At the time of randomization, and in the Investigator's judgement, it must be feasible for study drug treatment infusion to be initiated no later than 10 hours after time of symptom onset, if known, or the time last known normal. • Participants who wake with stroke may be included if neurological and other exclusion criteria are satisfied. The time of stroke onset is to be taken as the midpoint between sleep onset (or last known to be normal) and time of waking. • For participants who receive thrombectomy, inclusion into the study must be based on post-thrombectomy MRI-DWI.
Patients meeting the following criteria were excluded: • Participant is likely to have supportive care withdrawn on the first day. • Commitment to decompressive craniectomy (DC) prior to enrollment. • Evidence of concurrent infarction in the contralateral hemisphere sufficiently serious so as to affect functional outcome. Pre-Specified Primary Endpoint • Modified Rankin Scale (mRS) score at 90 days analyzed as a shift analysis using a 5-category ordinal scale with 0/1 and 5/6 collapsed. The primary efficacy analysis was pre-specified to be conducted in participants 18-70 years of age (inclusive) who were randomized and receive study treatment (the modified intent-to-treat [mITT] population].
Five hundred thirty-five subjects were enrolled, with 268 treated with placebo and 267 treated with intravenous glyburide. The mITT population (the primary analysis population), those participants aged […] years who received any study drug, consisted of 431 subjects.
An interaction term between treatment arm and stroke volume was included in an ordinal logistic regression model with 90-day mRS as the dependent variable. Independent variables included age, sex, baseline NIHSS, world region, tissue plasminogen activator, and thrombectomy.

In the case of `COc1ccc(Cl)cc1C(=O)NCCc1ccc(S(=O)(=O)NC(=O)NC2CCCCC2)cc1` [glibenclamide], the “common odds ratio (cOR), 90-day mRS” value (mITT subjects given glyburide in combination with thrombectomy (n=81), 95% CI 1.10-20.1, p=0.037) is reported as 4.69, the “lesion volume at which cOR crosses the "no effect" point (cOR=1.0)” value (mITT subjects with CTP or DWI baseline volume) is reported as “about 140 cm^3” and the “lesion volume at which cOR crosses the "no effect" point (cOR=1.0)” value (mITT subjects with CTP or DWI baseline volume, listed as glyburide) is reported as “approximately 140 cm^3”. The “common odds ratio (cOR), 90-day mRS” value (mITT subjects with CTP or DWI baseline volume, lesion volume less than 85 cm^3, ordinal logistic regression, mRS 0/1 and 5/6 collapsed) was “about 6” and the “common odds ratio (cOR), 90-day mRS” value (mITT, baseline stroke volume ≤120 cm^3 subgroup, 95% CI 1.07-5.01, p=0.034) was 2.31.
